Several values for one entry are separate records, joined by “and”; a condition that tells them apart may be missing. Equal values may be shown once. Activity calls are given as the source filed them. The calls were made as follows: active = viability on the fitted dose curve at most 10% of control; inactive = the rest.
Tested on: LG0567-F671-PDC KRAS tumor spheroid viability
Assay: Anticancer human tumor LG0567-F671-PDC patient-derived lung adenocarcinoma cell line growth inhibition [KRAS2]
Settings: spheroids with HUVEC and MSC; for viability, T/C: stronger effect = lower value
How it was run: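 KRAS-mutant tumor cells were grown as spheroids with HUVEC endothelial cells and human MSCs as stroma. Targeted agents were tested alone and with KRAS pathway inhibitors. Doses started at or near clinical Cmax, or 10 microM, descending half-log.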

[1] = curve of first compound, second compound 0.1 µM
[2] = curve of first compound, second compound 0.316 µM
[3] = curve of first compound, second compound 1 µM
[4] = curve of first compound, second compound 3.16 µM
[5] = curve of first compound, second compound 10 µM
[6] = second compound 0.1 µM, first compound 0.0316 µM
[7] = second compound 0.1 µM, first compound 0.1 µM
[8] = second compound 0.1 µM, first compound 0.316 µM
[9] = second compound 0.1 µM, first compound 1 µM
[10] = second compound 0.1 µM, first compound 3.16 µM
[11] = second compound 0.1 µM, first compound 10 µM
[12] = second compound 0.316 µM, first compound 0.0316 µM
[13] = second compound 0.316 µM, first compound 0.1 µM
[14] = second compound 0.316 µM, first compound 0.316 µM
[15] = second compound 0.316 µM, first compound 1 µM
[16] = second compound 0.316 µM, first compound 3.16 µM
[17] = second compound 0.316 µM, first compound 10 µM
[18] = second compound 1 µM, first compound 0.0316 µM
[19] = second compound 1 µM, first compound 0.1 µM
[20] = second compound 1 µM, first compound 0.316 µM
[21] = second compound 1 µM, first compound 1 µM
[22] = second compound 1 µM, first compound 3.16 µM
[23] = second compound 1 µM, first compound 10 µM
[24] = second compound 3.16 µM, first compound 0.0316 µM
[25] = second compound 3.16 µM, first compound 0.1 µM
[26] = second compound 3.16 µM, first compound 0.316 µM
[27] = second compound 3.16 µM, first compound 1 µM
[28] = second compound 3.16 µM, first compound 3.16 µM
[29] = second compound 3.16 µM, first compound 10 µM
[30] = second compound 10 µM, first compound 0.0316 µM
[31] = second compound 10 µM, first compound 0.1 µM
[32] = second compound 10 µM, first compound 0.316 µM
[33] = second compound 10 µM, first compound 1 µM
[34] = second compound 10 µM, first compound 3.16 µM
[35] = second compound 10 µM, first compound 10 µM
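For IC50 in this document: drug exposure lasted seven days after spheroids formed for three days.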
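For viability, T/C in this document: drug exposure lasted seven days after spheroids formed for three days; 100% = DMSO vehicle control viability.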

Structure (SMILES) | IC50 [1] [nM] | IC50 [2] [nM] | IC50 [3] [nM] | IC50 [4] [nM] | viability, T/C [6] [%] | viability, T/C [7] [%] | viability, T/C [8] [%] | viability, T/C [9] [%] | viability, T/C [10] [%] | viability, T/C [12] [%] | viability, T/C [13] [%] | viability, T/C [14] [%] | viability, T/C [15] [%] | viability, T/C [16] [%] | viability, T/C [18] [%] | viability, T/C [19] [%] | viability, T/C [20] [%] | viability, T/C [21] [%] | viability, T/C [22] [%] | viability, T/C [24] [%] | other results
CCNC(=O)CC1N=C(c2ccc(Cl)cc2)c2cc(OC)ccc2-n2c(C)nnc21 (centres undefined) + COc1cc2nc(C)nc(NC(C)c3cc(N)cc(C(F)(F)F)c3)c2cc1OC1CCOC1 | 410 | 411 | 403 | 319 | 97 | 82.3 | 61.6 | 17.1 | 8.29 | 109 | 96.5 | 62.3 | 10 | 8.83 | 84.6 | 87.8 | 60.9 | 9.34 | 7.07 | 78.9 | IC50 [5]: 224 nM; viability, T/C [11]: 5.17%; viability, T/C [17]: 7.95%; viability, T/C [23]: 8.48%; viability, T/C [25]: 69.9%; viability, T/C [26]: 50.8%; viability, T/C [27]: 9.17%; viability, T/C [28]: 6.95%; viability, T/C [29]: 10.1%; viability, T/C [30]: 74.5%; viability, T/C [31]: 59.8%; viability, T/C [32]: 47.5%; viability, T/C [33]: 20.6%; viability, T/C [34]: 10%; viability, T/C [35]: 8.82%
CC1(C)CCC(CN2CCN(c3ccc(C(=O)NS(=O)(=O)c4ccc(NCC5CCOCC5)c([N+](=O)[O-])c4)c(Oc4cnc5[nH]ccc5c4)c3)CC2)=C(c2ccc(Cl)cc2)C1 + CC1OCC2(CCN(c3cnc(Sc4ccnc(N)c4Cl)c(N)n3)CC2)C1N | < 31.6 | < 31.6 | < 31.6 | < 31.6 | 47 | 44.4 | 41.8 | 39.1 | 15.4 | 42.2 | 31.9 | 33.4 | 32.9 | 9.77 | 27.8 | 26.2 | 27 | 27.1 | 8.05 | 22.9 | IC50 [5]: < 31.6 nM; viability, T/C [11]: 3.67%; viability, T/C [17]: 2.77%; viability, T/C [23]: 1.79%; viability, T/C [25]: 24%; viability, T/C [26]: 18.3%; viability, T/C [27]: 16.1%; viability, T/C [28]: 2.78%; viability, T/C [29]: 2.97%; viability, T/C [30]: 12.2%; viability, T/C [31]: 15.4%; viability, T/C [32]: 11.1%; viability, T/C [33]: 10.7%; viability, T/C [34]: 2.4%; viability, T/C [35]: 0.54%
CC1COCCN1c1cc(-c2ccnn2C)c2ccnc(-c3ccn[nH]3)c2n1 (centres undefined) + COc1cc2nc(C)nc(NC(C)c3cc(N)cc(C(F)(F)F)c3)c2cc1OC1CCOC1 | 219 | 79.1 | 67.7 | 14.4 | 60.8 | 50.1 | 56.2 | 41.2 | 15.7 | 70.7 | 46.7 | 23.8 | 15.3 | 36.7 | 59.6 | 44.2 | 36.2 | 16.9 | 18.4 | 37.9 | IC50 [5]: 46.1 nM; viability, T/C (second compound 0.1 µM, first compound 0.01 µM): 91.9%; viability, T/C (second compound 0.316 µM, first compound 0.01 µM): 84%; viability, T/C (second compound 1 µM, first compound 0.01 µM): 79.3%; viability, T/C (second compound 3.16 µM, first compound 0.01 µM): 55.5%; viability, T/C [25]: 21.8%; viability, T/C [26]: 10.1%; viability, T/C [27]: 4.98%; viability, T/C [28]: 24.5%; viability, T/C (second compound 10 µM, first compound 0.01 µM): 53.2%; viability, T/C [30]: 54.3%; viability, T/C [31]: 43.6%; viability, T/C [32]: 29.6%; viability, T/C [33]: 32.2%; viability, T/C [34]: 22.1%
CC1OCC2(CCN(c3cnc(Sc4ccnc(N)c4Cl)c(N)n3)CC2)C1N (centres undefined) + COc1cc2nc(C)nc(NC(C)c3cc(N)cc(C(F)(F)F)c3)c2cc1OC1CCOC1 | 62.2 | 55.5 | 68.1 | 57.7 | 61.9 | 40.3 | 30.6 | 27.5 | 23.1 | 58 | 41.6 | 30.6 | 25.8 | 21.7 | 61.5 | 43.6 | 32 | 26.3 | 19.2 | 58.1 | IC50 [5]: 56.2 nM; viability, T/C [11]: 15.3%; viability, T/C [17]: 16%; viability, T/C [23]: 13.5%; viability, T/C [25]: 42.3%; viability, T/C [26]: 32%; viability, T/C [27]: 25.4%; viability, T/C [28]: 19.2%; viability, T/C [29]: 13.6%; viability, T/C [30]: 52.7%; viability, T/C [31]: 47.4%; viability, T/C [32]: 28.9%; viability, T/C [33]: 20.2%; viability, T/C [34]: 19.5%; viability, T/C [35]: 16%
Cn1nccc1Nc1nccc(-c2cc3c(s2)C(C)(C)N(CCN2CCOCC2)C3=O)n1 + C=CC(=O)N1CCN(c2nc(OCC3CCCN3C)nc3c2CCN(c2cccc4cccc(C)c24)C3)CC1CC#N | < 31.6 | < 31.6 | < 31.6 | < 31.6 | 26.8 | 31.8 | 28 | 23.3 | 17.8 | 33.2 | 25.8 | 21.2 | 35.5 | 16.8 | 29.6 | 26.9 | 33.1 | 26.5 | 15.3 | 29.3 | IC50 (curve of first compound, second compound 0.0316 µM): < 31.6 nM; viability, T/C (second compound 0.0316 µM, first compound 0.0316 µM): 34.5%; viability, T/C (second compound 0.0316 µM, first compound 0.1 µM): 28.7%; viability, T/C (second compound 0.0316 µM, first compound 0.316 µM): 39.7%; viability, T/C (second compound 0.0316 µM, first compound 1 µM): 19.2%; viability, T/C (second compound 0.0316 µM, first compound 3.16 µM): 19.9%; viability, T/C (second compound 0.0316 µM, first compound 10 µM): 19.7%; viability, T/C [11]: 21.1%; viability, T/C [17]: 19.1%; viability, T/C [23]: 19.4%; viability, T/C [25]: 29.1%; viability, T/C [26]: 28.1%; viability, T/C [27]: 23.2%; viability, T/C [28]: 21.7%; viability, T/C [29]: 24.4%
CC1COCCN1c1cc(-c2ccnn2C)c2ccnc(-c3ccn[nH]3)c2n1 (centres undefined) |  |  |  |  |  |  |  |  |  |  |  |  |  |  |  |  |  |  |  |  | viability, T/C (compound 0.01 µM): 101% [middle of 5 runs]; viability, T/C (compound 0.316 µM): 74% [middle of 5 runs]
CC(C)NCC(C(=O)N1CCN(c2ncnc3c2C(C)CC3O)CC1)c1ccc(Cl)cc1 (centres undefined) |  |  |  |  |  |  |  |  |  |  |  |  |  |  |  |  |  |  |  |  | viability, T/C (compound 0.0316 µM): 101% [middle of 5 runs]; viability, T/C (compound 0.1 µM): 83.4% [middle of 5 runs]; viability, T/C (compound 0.316 µM): 65.9% [middle of 5 runs]; viability, T/C (compound 1 µM): 71.3% [middle of 5 runs]; viability, T/C (compound 10 µM): 72.5% [middle of 4 runs]; outcome (compound 10 µM): active; IC50 (curve of compound): > 10000 nM and 1170 nM
